The nature of this data set: Human HepG2 cell viability assay in 384 well format. Format: toxicity, cell-based. Set-up: dose 125 nL, time 70.5 hour; cytotoxicity at 70.5 h: concentration not given beside the values. The following applies: HepG2 cells, read-out: Inhibition.

Take `Cc1ccc(OC2(C(=O)O)CCN(C(=O)c3ccsc3)CC2)cn1`: the cytotoxicity at 70.5 h was -4.13%.
In the case of `CCCN1CCC(CC(=O)NCc2cc(O)ncn2)CC1`, the cytotoxicity at 70.5 h was -11.6%.
Consider `Cc1ccccc1NC(=O)N1CCN(C(=O)C2CC2)[C@@H]2CS(=O)(=O)C[C@@H]21`, for which the cytotoxicity at 70.5 h is -6.63%.
In the case of `Clc1cccc2c1CCN(Cc1nc(CC3CC3)no1)C2`, the cytotoxicity at 70.5 h is -5.71%.
Turning to `COc1ccc2[nH]c(CNc3cc(C4CCNCC4)nc(C)n3)cc2c1`, the cytotoxicity at 70.5 h was -3.5%.
As for `CC(C)=CCN1C[C@H]2CC[C@@H]1CN(Cc1cc(=O)[nH]c(=O)[nH]1)C2`, the cytotoxicity at 70.5 h is -3.94%.
As to `CCN(CCc1nc2cc(C)ccc2[nH]1)C(=O)COC`, the cytotoxicity at 70.5 h was -4.93%.
For `Cc1ccc2[nH]c(CN(C)Cc3n[nH]c4c3CCC4)nc2c1`, the cytotoxicity at 70.5 h was -3.51%.
Take `COc1cccc(OC)c1OCCN1C(=O)CCNC1=O`: the cytotoxicity at 70.5 h is 26.5%.
Regarding `Cc1ccccc1C(=O)NC[C@@H]1CCN(C(=O)CN2CCCC2)C[C@H]1O`, the cytotoxicity at 70.5 h is -5.06%.
`CN(Cc1cnc(N)nc1)C(=O)c1coc(COc2ccccc2)n1`: the cytotoxicity at 70.5 h was -2.22%.
For `CC(C)c1nnc(NCc2cc3n(n2)CCNC3)s1`, the cytotoxicity at 70.5 h was -8.56%.
With `CC(=O)NCCC1CCCCN1C(=O)c1cccc(CCC(C)(C)O)c1` (configuration not stated), the cytotoxicity at 70.5 h is -6.03%.
`CCNC(=O)[C@@H]1C[C@H](N)CN1Cc1ccc(-c2cc[nH]n2)o1`: the cytotoxicity at 70.5 h is 9.98%.
The value for `COC(=O)C1CCCN1C(=O)c1cc(CC(C)C)no1` (configuration not stated) was -1.76%.
Regarding `O=C(O)C1c2nc[nH]c2CCN1Cc1cc(-c2ccccc2)no1` (configuration not stated), the cytotoxicity at 70.5 h is -4.98%.
For the compound `COCCN(C)C[C@@H]1CN(C(=O)c2ccc3c(c2)OCO3)C[C@@H]1CO`, the cytotoxicity at 70.5 h is -12.8%.
Turning to `CCN(CC)C(=O)Cn1cc(C(=O)NCCCc2scnc2C)nn1`, the cytotoxicity at 70.5 h was -4.02%.
The value for `Cc1ccsc1C(=O)NCc1cccnc1N(C)CCc1ccccn1` was -7.98%; that for `COCCN1CCC(C(=O)N(C)CCOc2ccc(C)cc2Cl)C1` (configuration not stated) was 20.7%; that for `O=C(c1cnnn1-c1ccccc1)N1CCCC(c2ccn[nH]2)C1` (configuration not stated) was 48.8%.
With `O=c1[nH]c(-c2cccnc2)nc2c1CCN(S(=O)(=O)N1CCCC1)C2`, the cytotoxicity at 70.5 h was -12%.
In the case of `COc1ccc(OC2CCN(C(=O)CCc3n[nH]c(N)n3)CC2)cc1`, the cytotoxicity at 70.5 h was 21.5%.
`COc1cccc(C(=O)N2C[C@H]3CC[C@@H]2CN(Cc2cscn2)C3)c1`: the cytotoxicity at 70.5 h was -23.3%.
For `CCn1c(CC2CCN(C(=O)C3CNCCO3)CC2)nn(C)c1=O` (configuration not stated), the cytotoxicity at 70.5 h was -16.2%.
Under `COCCCN1C(=O)CC[C@H]2CN(Cc3cc4ccccc4o3)CC[C@H]21` stands -1.98%.
The value for `Cc1cc(N2CCN(C(=O)CCc3scnc3C)CC2)nc(N)n1` was 18.7%; that for `CCOc1cccc(CN2CCCC(Nc3ccc(F)cc3)C2)c1O` (configuration not stated) was -6.06%.
Under `Cn1ccc2c(-c3nccc(N)n3)ccnc21` stands 5.54%; under `CCn1ncnc1C1CC(=O)NCc2nc(N3CCOCC3)sc21` (configuration not stated), -20.5%; under `O=C(CCN1CCCO1)N1CC[C@@H](c2ccc3ccccc3c2)[C@H](O)C1`, 0.165%.
In the case of `CC(C)c1nccn1C(C)C(=O)N1CCN(S(C)(=O)=O)CC1` (configuration not stated), the cytotoxicity at 70.5 h is -9.53%.
As to `COc1ccccc1CN(C)C(=O)CN1C(=O)OC[C@@H]1c1ccccc1`, the cytotoxicity at 70.5 h came out at 19.7%.
With `CCc1nc(C)c([C@H]2CN(C)C[C@@H]2C(=O)NC(C)(C)c2ccccc2)[nH]1`, the cytotoxicity at 70.5 h was -6.37%.
With `CCc1cc(N2CCC(NCCc3ccc(C)o3)CC2)nc(C)n1`, the cytotoxicity at 70.5 h was -16.4%.
As to `Cc1cc(C2CCCN2C(=O)Cn2c(C)cc(=O)c3ccccc32)on1` (configuration not stated), the cytotoxicity at 70.5 h is -6.42%.
Under `Cc1cc2nc(C(C)C)cc(N3CCN(S(N)(=O)=O)CC3)n2n1` stands -3.4%.

These data come from ChEMBL document CHEMBL3507680, “University of Dundee, Gates Library screen for HepG2 cell viability”.
